Test results as given in paper PMC8637440, “Structural Modifications Yield Novel Insights Into the Intriguing Pharmacodynamic Potential of Anti-inflammatory Nitro-Fatty Acids” (Frontiers in Pharmacology, 2021).

Tests used:
COX-2 expression = COX-2 expression in A549 cells (Western blot); format: cell-based, human; conditions: 24 h; for COX-2 expression in IL-1β-stimulated A549 cells: 10 µM
Experimental: Cytoplasmic and nuclear extracts (100 µg each) and 30 µg whole-cell lysates were diluted in 5× Laemmli loading dye and denatured for 10 min at 95°C, loaded on a 10% SDS polyacrylamide gel, and separated by gel electrophoresis for 15 min at 80 V followed by 60 min at 120 V. The separated proteins were blotted onto a nitrocellulose membrane (Hybond-C Extra, Amersham Biosciences Ltd., UK) using the Mini Trans-Blot® module (Bio-Rad, Hercules, California, United States) for 90 min at 90 V. The membrane was blocked with Odyssey blocking buffer (Li-Cor Biosciences, Bad Homburg, Germany) or 5% milk powder in TBS-T (Tris Buffered Saline with 0.1% Tween) for 1 h at room temperature (RT). The membranes were incubated with the primary antibodies overnight at 4°C, and then with the secondary antibodies for 1 h at RT. The primary antibodies were diluted 1:1,000 and the secondary antibodies were diluted 1:10,000 to 1:20,000. […] Upon detection, the membrane was washed three times with 1× PBS-T (Phosphate-Buffered Saline with 0.1% Tween) or TBS-T and finally once with 1× PBS or TBS before the protein–antibody interaction was visualized on an Odyssey Infrared Imaging System (Li-Cor Biosciences) at 700 nm or 800 nm depending on the fluorophore of the secondary antibody.
Suppl. Figure 6: Effects of NFA on cellular COX-2 expression. Representative Western Blot of A549 cells treated with (A) NFA with different carbon chain length and (B) different Michael acceptor position for 24 h without IL-1 β stimulation (1 ng/ml) and the densitometrical evaluation of n=4-5 experiments (C, D). Representative Western Blot of A549 cells stimulated with IL-1 β and subsequent treatment with (E) NFA with different carbon chain length and (F) different Michael acceptor position for 24 h and the densitometrical evaluation of n=4-5 experiments (G, H). Intracellular COX-2 levels were normalized to β-actin and presented as mean + SD. Statistical significance was calculated by one-way ANOVA with Bonferroni post-test. P-values of **** P ≦0.0001, **P ≦0.0021, and *P ≦0.03 are considered significant. COX, cyclooxygenase; DMSO , dimethyl sulfoxide; NFA, nitro fatty acids
(1 picture or pasted object on this page, not shown here)

NF-κB p65 = NF-κB p65 transcription factor ELISA in TNFα-stimulated HCT-116 cells; format: cell-based; conditions: Homo sapiens; 10 µM, 14 h preincubation, then 10 ng/ml TNF-α 4 h, HCT-116, ELISA; read-out: inhibition of NF-κB p65 signaling
Experimental: (§1) The Nrf-2 and NF-κB transcription factors in the nuclear extracts were detected using an Nrf-2 Transcription Assay Kit (Cayman Chemical, # 600590) and NF-κB (p65 and p50) Transcription Factor Assay Kit (Cayman Chemical, # 10007889 and # 10006912). Prior to assay performance, the nuclear extracts were generated using a Nuclear Extraction Kit (Cayman Chemical, # 10009277). The assay was performed according to the manufacturer’s instructions. For all kits, the nuclear extracts were incubated overnight at 4°C. Development was carried out for 15–20 min or until the wells turned medium to dark blue. Five minutes after the stop solution had been added, the absorbance was read at 450 nm using a plate reader.
(§2) The proteasome inhibitor MG132 ([Lee and Goldberg, 1998]) was used as a positive control, as proteasomal inhibition leads to stabilization of I-κB and thus inhibits the activation of the NF-κB signaling pathway. We used a MG132 incubation period of 4 h as longer incubations have been described to activate NF-κB signaling ([Lee et al., 2013]).
(§3) FIGURE 1 Effects of NFA on the NF-κB p65 and p50 signaling pathway in colorectal cancer cells. […] Incubation for 4 h with the proteasome inhibitor MG132 (1 µM) served as the positive control. […] Values are normalized to protein concentration and unstimulated vehicle control. Data are represented as mean ± SD of (A) n = 3 (DMSO, 16.9.9, 9NOA control of right panel, 18.4.4, 18.6.7, and 18.9.10), n = 4 (all other derivatives) and (B) n = 5. Statistical significance was calculated by one-way analysis of variance (ANOVA) with Bonferroni post-test. *p ≤ 0.03, **p ≤ 0.0021, ***p ≤ 0.0002, ****p ≤ 0.0001 were considered significant versus TNF-α treatment.

NF-κB p50 = NF-κB p50 transcription factor ELISA in TNFα-stimulated HCT-116 cells; format: cell-based, human; conditions: 14 h preincubation, then 10 ng/ml TNF-α 4 h, HCT-116, ELISA; for inhibition of NF-κB p50 signaling: 10 µM
Experimental: as §1, §2, §3

sEH = molecular target: T1, sEH (Homo sapiens, UniProt P34913); assay: Cell-based sEH activity assay in HepG2 cells; set-up: endogenous in cells; host or cells: HepG2; conditions: for inhibition of sEH activity in HepG2 cells: 10 µM, 24 h
T1 sequence (P34913 1-555): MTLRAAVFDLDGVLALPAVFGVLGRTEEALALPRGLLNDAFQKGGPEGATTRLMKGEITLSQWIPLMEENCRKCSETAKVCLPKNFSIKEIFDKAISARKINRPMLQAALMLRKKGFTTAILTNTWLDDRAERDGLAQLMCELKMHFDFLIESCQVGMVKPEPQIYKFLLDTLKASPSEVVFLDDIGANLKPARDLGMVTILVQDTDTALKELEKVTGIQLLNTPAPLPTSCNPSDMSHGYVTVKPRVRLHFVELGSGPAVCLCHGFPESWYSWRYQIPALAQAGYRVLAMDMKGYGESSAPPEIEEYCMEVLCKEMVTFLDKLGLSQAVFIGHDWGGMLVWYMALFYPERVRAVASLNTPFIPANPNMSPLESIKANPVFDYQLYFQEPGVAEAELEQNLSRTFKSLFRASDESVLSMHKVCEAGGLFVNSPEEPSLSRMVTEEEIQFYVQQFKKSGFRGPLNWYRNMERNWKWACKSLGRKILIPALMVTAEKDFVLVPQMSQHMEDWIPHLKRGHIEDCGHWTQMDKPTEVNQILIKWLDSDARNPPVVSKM
Experimental: sEH activity in the cells was analyzed using a Soluble Epoxide Hydrolase Cell-Based Assay Kit (Cayman Chemical, #600090). […] Following incubation, the cells were processed according to the manufacturer’s instructions. The assay uses an internal signal subtraction to minimize potential errors generated by sEH-independent product formation due esterase mediated hydrolysis. The fluorescence intensity of the samples was measured in a plate reader at excitation/emission wavelengths of 330/465 nm sEH activity was calculated by the 6-methoxy-2-naphthaldehyde standard curve.
FIGURE 3 Effects of NFA on sEH activity. […] Data are the mean ± SEM of n = 3–7. […] The cells were lysed, and hydrolase activity was measured by Epoxy Fluor 7 lysis. […] Statistical significance was calculated by one-way ANOVA with Bonferroni post-test and multiple comparisons against the DMSO control.

| inhibition of sEH activity in HepG2 cells (sEH) | Compound | COX-2 expression in IL-1β-stimulated A549 cells (COX-2 expression) | inhibition at 10 µM (NF-κB p65) | inhibition of NF-κB p50 signaling (NF-κB p50) | further results |
| --- | --- | --- | --- | --- | --- |
|  | CCCCCCCCCCCCC=C(CCCC(=O)O)[N+](=O)[O-] [18.5.5, 5-nitro-octadec-5-enoic acid] | highest effects |  |  |  |
|  | CCCCCCCCCCC=C(CCCCCC(=O)O)[N+](=O)[O-] [18.7.7, 7-nitro-octadec-7-enoic acid] | highest effects | ~90% | most effective p50 inhibitors | COX-2 gene expression in non-stimulated A549 cells (COX-2 expression; without IL-1β): clearly increased COX-2 gene expression |
|  | CCCCCCCCCC=C(CCCCCCC(=O)O)[N+](=O)[O-] [18.8.8, 8-nitro-octadec-8-enoic acid] | highest effects | 50% | most effective p50 inhibitors |  |
|  | CCCCCCCCCC(=CCCCCCCC(=O)O)[N+](=O)[O-] [18.8.9, 9-nitro-octadec-8-enoic acid] |  | 50% | most effective p50 inhibitors |  |
|  | CCCCCCCCC=C(CCCCCCCC(=O)O)[N+](=O)[O-] [18.9.9, 9-nitro-octadec-9-enoic acid] |  | 50% | most effective p50 inhibitors | inhibition at 10 µM (NF-κB p50; Homo sapiens, read-out: inhibition of NF-κB p50 signaling): ~60% |
| most efficient enzyme inhibition | CCCCCCCCC(=CCCCCCCCC(=O)O)[N+](=O)[O-] [18.9.10, 10-nitro-octadec-9-enoic acid] |  |  |  |  |
| most efficient enzyme inhibition | CCCCCCCC=C(CCCCCCCCC(=O)O)[N+](=O)[O-] [18.10.10, 10-nitro-octadec-10-enoic acid] |  |  |  |  |
| most efficient enzyme inhibition | CCCCCCC=C(CCCCCCCCCC(=O)O)[N+](=O)[O-] [18.11.11, 11-nitro-octadec-11-enoic acid] |  |  |  |  |

| Compound | inhibition of sEH activity in HepG2 cells (sEH) | COX-2 expression in IL-1β-stimulated A549 cells (COX-2 expression) | inhibition at 10 µM (NF-κB p65) | inhibition of NF-κB p50 signaling (NF-κB p50) | further results |
| --- | --- | --- | --- | --- | --- |
| CCCCCCCC/C=C\CCCCCCCC(=O)O [OA, oleic acid, reference compound] | strong suppressive effect |  |  |  | inhibition at 10 µM (sEH; HepG2, 24 h): > 50% |
